Laboratory results: ChEMBL document CHEMBL4004848, “Dregamine and tabernaemontanine derivatives as ABCB1 modulators on resistant cancer cells” (Eur J Med Chem, 2017)
pIC50: −log10 of the molar value.

Tests used:
[1] = target: T1, ATP-dependent translocase ABCB1 (Homo sapiens, UniProt P08183); assay: Inhibition of human ABCB1 expressed in mouse L5178Y cells pretreated for 10 mins followed by rhodamine-123 addition after 20 mins by flow cytometry; assay type: cell-based
[2] = target: T1, ATP-dependent translocase ABCB1; assay: Inhibition of human ABCB1 expressed in mouse L5178Y cells assessed as increase in rhodamine-123 accumulation by measuring forward scatter count of cells at 20 uM pretreated for 10 mins followed by rhodamine-123 addition after 20 mins by flow cytometry (reference value: 2206); assay type: cell-based
L5178Y = assay: Cytotoxicity against mouse L5178Y cells after 24 hrs by MTT assay; assay type: functional, cell-based
[3] = target: T1, ATP-dependent translocase ABCB1; assay: Inhibition of human ABCB1 expressed in mouse L5178Y cells assessed as increase in rhodamine-123 accumulation by measuring side scatter count of cells at 20 uM pretreated for 10 mins followed by rhodamine-123 addition after 20 mins by flow cytometry (reference value: 903); assay type: cell-based
[4] = target: T1, ATP-dependent translocase ABCB1; assay: Inhibition of human ABCB1 expressed in mouse L5178Y cells assessed as fluorescence activity ratio at 20 uM pretreated for 10 mins followed by rhodamine-123 addition after 20 mins by flow cytometry; assay type: cell-based
[5] = target: T1, ATP-dependent translocase ABCB1; assay: Inhibition of human ABCB1 expressed in mouse L5178Y cells assessed as increase in rhodamine-123 accumulation by measuring forward scatter count of cells at 2 uM pretreated for 10 mins followed by rhodamine-123 addition after 20 mins by flow cytometry (reference value: 2206); assay type: cell-based
[6] = target: T1, ATP-dependent translocase ABCB1; assay: Inhibition of human ABCB1 expressed in mouse L5178Y cells assessed as fluorescence activity ratio at 2 uM pretreated for 10 mins followed by rhodamine-123 addition after 20 mins by flow cytometry; assay type: cell-based
[7] = target: T1, ATP-dependent translocase ABCB1; assay: Inhibition of human ABCB1 expressed in mouse L5178Y cells assessed as increase in rhodamine-123 accumulation by measuring side scatter count of cells at 2 uM pretreated for 10 mins followed by rhodamine-123 addition after 20 mins by flow cytometry (reference value: 903); assay type: cell-based
NIH3T3 = assay: Cytotoxicity against mouse NIH/3T3 cells after 24 hrs by MTT assay; assay type: cell-based; settings: NIH3T3, 24 h
[8] = target: T1, ATP-dependent translocase ABCB1; assay: Inhibition of human ABCB1 expressed in mouse L5178Y cells assessed as potentiation of doxorubicin-induced cytotoxicity by measuring combination index at 2:5 doxorubicin to compound ratio after 48 hrs by MTT assay; assay type: cell-based
[9] = target: T1, ATP-dependent translocase ABCB1; assay: Inhibition of human ABCB1 expressed in mouse L5178Y cells assessed as potentiation of doxorubicin-induced cytotoxicity by measuring combination index at 2:25 doxorubicin to compound ratio after 48 hrs by MTT assay; assay type: cell-based
[10] = Selectivity index, ratio of IC50 for mouse NIH/3T3 cells to IC50 for mouse L5178Y cells; assay type: functional
[11] = Selectivity index, ratio of IC50 for mouse L5178Y cells to IC50 for human ABCB1 expressed in L5178Y cells

T1 sequence (P08183 whole entry): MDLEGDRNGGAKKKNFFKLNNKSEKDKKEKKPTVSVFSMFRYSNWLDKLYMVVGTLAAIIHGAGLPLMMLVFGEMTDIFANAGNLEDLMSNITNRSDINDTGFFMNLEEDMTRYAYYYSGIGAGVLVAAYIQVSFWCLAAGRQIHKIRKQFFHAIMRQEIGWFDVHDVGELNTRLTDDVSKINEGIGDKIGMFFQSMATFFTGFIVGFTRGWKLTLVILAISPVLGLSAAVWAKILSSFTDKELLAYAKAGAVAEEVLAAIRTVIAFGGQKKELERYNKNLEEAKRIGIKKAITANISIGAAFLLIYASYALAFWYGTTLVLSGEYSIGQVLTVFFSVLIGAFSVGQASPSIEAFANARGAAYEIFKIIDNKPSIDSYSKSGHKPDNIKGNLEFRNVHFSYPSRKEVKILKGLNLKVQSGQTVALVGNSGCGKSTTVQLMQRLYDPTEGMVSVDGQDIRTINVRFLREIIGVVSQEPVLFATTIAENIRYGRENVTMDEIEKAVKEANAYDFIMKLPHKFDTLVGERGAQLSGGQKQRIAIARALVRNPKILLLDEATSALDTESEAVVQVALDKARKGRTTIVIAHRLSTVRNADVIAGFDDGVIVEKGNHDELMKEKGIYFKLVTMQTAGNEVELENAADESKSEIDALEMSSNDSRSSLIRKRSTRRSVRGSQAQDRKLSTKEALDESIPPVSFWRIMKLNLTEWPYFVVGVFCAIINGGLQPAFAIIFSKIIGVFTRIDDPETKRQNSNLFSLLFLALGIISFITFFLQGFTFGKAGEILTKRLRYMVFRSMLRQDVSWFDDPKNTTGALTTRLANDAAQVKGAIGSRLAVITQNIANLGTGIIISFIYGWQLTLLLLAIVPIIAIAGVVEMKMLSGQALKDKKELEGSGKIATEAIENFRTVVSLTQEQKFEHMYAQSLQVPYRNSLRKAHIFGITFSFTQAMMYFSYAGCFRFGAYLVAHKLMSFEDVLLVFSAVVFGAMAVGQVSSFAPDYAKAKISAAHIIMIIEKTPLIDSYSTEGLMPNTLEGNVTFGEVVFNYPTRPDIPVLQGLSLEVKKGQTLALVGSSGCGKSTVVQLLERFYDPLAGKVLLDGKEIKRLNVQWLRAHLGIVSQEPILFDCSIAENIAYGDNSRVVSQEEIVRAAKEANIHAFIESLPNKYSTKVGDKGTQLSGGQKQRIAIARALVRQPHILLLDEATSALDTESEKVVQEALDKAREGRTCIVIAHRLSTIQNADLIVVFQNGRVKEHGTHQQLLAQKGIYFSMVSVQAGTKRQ

Row | Compound | inhibition (INH) [1] | Activity [2] | pIC50 (L5178Y) | Activity [3] | Ratio [4] | Activity [5] | Ratio [6] | Activity [7] | pIC50 (NIH3T3) | CI [8] | CI [9] | Ratio IC50 [10] | Ratio IC50 [11]
1 | CC[C@@H]1CN(C)[C@H]2Cc3c([nH]c4ccccc34)/C(=N/NC(N)=O)C[C@H]1[C@@H]2C(=O)OC | Dose-dependent effect | 2389 | < 4.00 | 770 | 2.12 | 2410 | 1.04 | 793 | < 4.00 |  |  |  | 
2 | CC[C@@H]1CN(C)[C@H]2Cc3c([nH]c4ccccc34)[C@@H](OC(=O)C34CC5CC(CC(C5)C3)C4)C[C@H]1[C@@H]2C(=O)OC | Dose-dependent effect | 2442 | < 4.00 | 1203 | 8.61 | 2450 | 1.08 | 1209 | < 4.00 |  |  |  | 
3 | CC[C@@H]1CN(C)[C@H]2Cc3c([nH]c4ccccc34)/C(=N/Nc3cnccn3)C[C@H]1[C@@H]2C(=O)OC | Dose-dependent effect | 2265 | 4.19 | 765 | 78.79 | 2283 | 10.28 | 793 | < 4.00 | 0.31 |  |  | 
4 | CC[C@@H]1CN(C)[C@H]2Cc3c([nH]c4ccccc34)/C(=N/Nc3ccccc3)C[C@H]1[C@@H]2C(=O)OC | Dose-dependent effect | 2046 | 4.94 | 955 | 59.65 | 2129 | 5.49 | 941 | 4.70 |  | 0.2 | 1.74 | 0.67
5 | CC[C@@H]1CN(C)[C@H]2Cc3c([nH]c4ccccc34)[C@@H](O)C[C@H]1[C@@H]2C(=O)OC | Dose-dependent effect | 2083 | 4.25 | 788 | 1.36 | 2251 | 0.88 | 793 | < 4.00 | 0.4 |  |  | 0.66
6 | CC[C@H]1CN(C)[C@H]2Cc3c(n(C(=O)c4cccc(C)c4)c4ccccc34)C(=O)C[C@H]1[C@@H]2C(=O)OC | Dose-dependent effect | 2449 | < 4.00 | 1204 | 12.1 | 2436 | 0.95 | 1197 | < 4.00 |  |  |  | 
7 | CC[C@H]1CN(C)[C@H]2Cc3c(n(C)c4ccccc34)C(=O)C[C@H]1[C@@H]2C(=O)OC | Dose-dependent effect | 2428 | 4.39 | 1197 | 46.7 | 2435 | 1.81 | 1214 | < 4.00 | 0.24 |  |  | 0.45
8 | COc1ccc(CCN(C)CCCC(C#N)(c2ccc(OC)c(OC)c2)C(C)C)cc1OC (stereo not drawn) |  | 2611 |  | 1078 |  |  |  |  |  |  |  |  | 
9 | CC[C@H]1CN(C)[C@H]2Cc3c([nH]c4ccccc34)/C(=N/Nc3ccc(Br)cn3)C[C@H]1[C@@H]2C(=O)OC |  | 1947 | 4.45 | 992 | 56.22 | 2152 | 57.99 | 1049 | 4.06 |  | 0.28 | 2.43 | 0.89
10 | CC[C@H]1CN(C)[C@H]2Cc3c([nH]c4ccccc34)C(=O)C[C@H]1[C@@H]2C(=O)OC | Dose-dependent effect | 2240 | 4.08 | 1098 | 15.35 | 2353 | 1.79 | 1081 | < 4.00 |  |  |  | 
11 | CC[C@@H]1CN(C)[C@H]2Cc3c([nH]c4ccccc34)/C(=N/Nc3ccc(Br)cn3)C[C@H]1[C@@H]2C(=O)OC |  | 2225 | 4.53 | 765 | 70.82 | 2294 | 84.19 | 804 | 4.08 |  | 0.19 | 2.85 | 0.78
12 | CC[C@H]1CN(C)[C@H]2Cc3c(n(CCN(CC)CC)c4ccccc34)C(=O)C[C@H]1[C@@H]2C(=O)OC | Dose-dependent effect | 2440 | 4.17 | 1192 | 52.93 | 2415 | 2.56 | 1214 | < 4.00 |  |  |  | 
13 | CC[C@@H]1CN(C)[C@H]2Cc3c([nH]c4ccccc34)C(=O)C[C@H]1[C@@H]2C(=O)OC | Dose-dependent effect | 2180 | 4.25 | 1033 | 1.38 | 2182 | 0.77 | 1146 | < 4.00 |  |  |  | 
14 | C/C=C/C(=O)O[C@H]1C[C@@H]2[C@@H](CC)CN(C)[C@@H](Cc3c1[nH]c1ccccc31)[C@H]2C(=O)OC | Dose-dependent effect | 2447 | 4.04 | 1213 | 18.09 | 2440 | 2.42 | 1226 | < 4.00 |  |  |  | 
15 | CC[C@H]1CN(C)[C@H]2Cc3c([nH]c4ccccc34)/C(=N/O)C[C@H]1[C@@H]2C(=O)OC | Dose-dependent effect | 2182 | 4.89 | 912 | 3.87 | 2156 | 0.85 | 958 | 4.45 |  |  | 2.75 | 0.77
16 | CC[C@@H]1CN(C)[C@H]2Cc3c([nH]c4ccccc34)/C(=N/O)C[C@H]1[C@@H]2C(=O)OC | Dose-dependent effect | 2304 | 4.22 | 781 | 7.31 | 2237 | 1.26 | 789 | < 4.00 |  | 0.36 |  | 0.7
17 | CC[C@H]1CN(C)[C@H]2Cc3c([nH]c4ccccc34)/C(=N/Nc3cnccn3)C[C@H]1[C@@H]2C(=O)OC | Dose-dependent effect | 2229 | 4.13 | 1038 | 60.79 | 2227 | 8.49 | 1058 | < 4.00 | 0.1 |  |  | 0.88
18 | CC[C@H]1CN(C)[C@H]2Cc3c([nH]c4ccccc34)/C(=N/NC(N)=O)C[C@H]1[C@@H]2C(=O)OC | Dose-dependent effect | 2380 | < 4.00 | 756 | 2.24 | 2312 | 1.16 | 778 | < 4.00 |  |  |  | 
19 | CC[C@H]1CN(C)[C@H]2Cc3c([nH]c4ccccc34)/C(=N/N)C[C@H]1[C@@H]2C(=O)OC | Dose-dependent effect | 2162 | 4.16 | 1037 | 46.47 | 2184 | 1.93 | 1025 | < 4.00 |  |  |  | 0.95
20 | CC[C@@H]1CN(C)[C@H]2Cc3c([nH]c4ccccc34)/C(=N/N)C[C@H]1[C@@H]2C(=O)OC | Dose-dependent effect | 2172 | 4.33 | 918 | 18.46 | 2191 | 1.32 | 927 | 4.02 |  |  | 1.36 | 0.96
21 | CC[C@H]1CN(C)[C@H]2Cc3c([nH]c4ccccc34)[C@@H](O)C[C@H]1[C@@H]2C(=O)OC | Dose-dependent effect | 2199 | < 4.00 | 797 | 5.18 | 2212 | 1.03 | 809 | < 4.00 |  |  |  | 
